Measurements reported in US20240270762A1, “PENICILLIN-BINDING PROTEIN INHIBITORS” (priority 2021, published 2024).
Values after ≈ are worked out from the molar mass of the structure shown.

Tests used:
A. baumannii CDC-0083 = experiment: microbe, parasite or virus in culture; format: cell-based; details: Acinetobacter baumannii, CDC0083, read-out: MIC, A. baumannii CDC-0083
P. aeruginosa CDC-0054 = experiment: microbe, parasite or virus in culture; format: cell-based; details: Pseudomonas aeruginosa, CDC0054, read-out: Minimum inhibitory concentration, P. aeruginosa CDC-0054
[1] = molecular target: T1, PBP3 from Pseudomonas aeruginosa (PAO1) (Pseudomonas aeruginosa, UniProt G3XD46); experiment: Bocillin-FL fluorescence polarization competition binding, P. aeruginosa PBP3; details: Binding affinity to P. aeruginosa PBP3; fluorescence polarization competition binding assay using Bocillin-FL; read-out: P. aeruginosa PBP3 Potency
T1 construct: made in house
T1 sequence (G3XD46 whole entry): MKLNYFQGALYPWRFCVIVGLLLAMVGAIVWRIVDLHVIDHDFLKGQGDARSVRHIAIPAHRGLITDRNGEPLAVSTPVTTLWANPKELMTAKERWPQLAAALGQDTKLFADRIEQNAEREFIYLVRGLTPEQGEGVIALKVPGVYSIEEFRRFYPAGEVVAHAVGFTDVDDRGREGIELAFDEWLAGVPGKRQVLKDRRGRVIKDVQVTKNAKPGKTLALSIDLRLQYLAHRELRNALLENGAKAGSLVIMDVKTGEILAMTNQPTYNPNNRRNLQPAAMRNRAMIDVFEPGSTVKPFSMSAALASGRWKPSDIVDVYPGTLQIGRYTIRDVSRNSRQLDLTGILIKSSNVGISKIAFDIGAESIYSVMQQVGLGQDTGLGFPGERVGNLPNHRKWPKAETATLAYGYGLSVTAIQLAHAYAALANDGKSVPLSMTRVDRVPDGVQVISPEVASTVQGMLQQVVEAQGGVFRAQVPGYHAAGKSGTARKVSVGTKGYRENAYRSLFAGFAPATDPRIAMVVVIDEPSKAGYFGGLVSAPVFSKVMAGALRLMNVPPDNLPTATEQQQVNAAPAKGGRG
Method in brief: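 Purified PBP was preincubated with inhibitor (E. coli PBP3 1.5 μM, 30 min; P. aeruginosa PBP3 0.75 μM, A. baumannii PBP3 0.2 μM and PBP1a 1 μM, 15 min), then Bocillin-FL (0.1 μM; 0.05 μM for PBP1a) added and FP read up to 60 min. EC50 = 50% loss of bound probe.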

P. aeruginosa CDC-0110 = experiment: microbe, parasite or virus in culture; format: cell-based; details: Pseudomonas aeruginosa, CDC0110, read-out: Minimum inhibitory concentration, P. aeruginosa CDC-0110
A. baumannii PBP1a = molecular target: T2, A. baumannii PBP1a (Acinetobacter baumannii, UniProt A0ABX6CK30); experiment: Bocillin-FL competition binding via gel filtration, A. baumannii PBP1a; details: competition binding assay using Bocillin-FL via gel filtration; read-out: A. baumannii PBP1a Potency
T2 sequence (A0ABX6CK30 1-851): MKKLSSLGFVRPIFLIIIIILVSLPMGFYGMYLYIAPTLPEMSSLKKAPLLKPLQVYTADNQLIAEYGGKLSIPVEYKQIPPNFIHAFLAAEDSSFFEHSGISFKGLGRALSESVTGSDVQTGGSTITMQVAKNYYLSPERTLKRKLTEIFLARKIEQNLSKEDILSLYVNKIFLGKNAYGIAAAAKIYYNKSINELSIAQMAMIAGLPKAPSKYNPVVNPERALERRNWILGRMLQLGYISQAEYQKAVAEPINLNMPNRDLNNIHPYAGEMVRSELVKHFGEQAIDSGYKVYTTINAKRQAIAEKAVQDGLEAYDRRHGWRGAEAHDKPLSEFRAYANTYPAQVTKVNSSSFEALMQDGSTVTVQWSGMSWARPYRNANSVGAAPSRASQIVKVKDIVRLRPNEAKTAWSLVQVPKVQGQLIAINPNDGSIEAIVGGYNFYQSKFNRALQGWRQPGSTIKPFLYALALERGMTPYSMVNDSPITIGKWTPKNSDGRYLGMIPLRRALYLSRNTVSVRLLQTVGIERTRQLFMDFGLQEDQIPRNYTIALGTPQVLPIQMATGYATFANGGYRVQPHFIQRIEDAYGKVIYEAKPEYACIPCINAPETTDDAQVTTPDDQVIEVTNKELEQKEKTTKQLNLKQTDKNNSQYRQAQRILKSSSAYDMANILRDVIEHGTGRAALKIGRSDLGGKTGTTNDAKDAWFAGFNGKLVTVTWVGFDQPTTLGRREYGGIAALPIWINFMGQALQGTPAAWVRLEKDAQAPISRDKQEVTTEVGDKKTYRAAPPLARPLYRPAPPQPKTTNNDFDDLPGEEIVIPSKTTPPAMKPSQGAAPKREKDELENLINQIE
Method in brief: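 Competitive equilibrium binding; reporter Bocillin-FL. PBP + inhibitor (titration) pre-incubated → Bocillin-FL, 15 min → gel filtration → fluorescence. EC50 from Hill fit of fraction bound vs [inhibitor].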

| Structure (SMILES) | MIC (A. baumannii CDC-0083) [µg/mL] | MIC (P. aeruginosa CDC-0054) [µg/mL] | IC50 [1] [µM] | MIC (P. aeruginosa CDC-0110) [µg/mL] | EC50 (A. baumannii PBP1a) [µM] |
| --- | --- | --- | --- | --- | --- |
| O=C(NCCCN1CCN(C(=O)N[C@@H](C(=O)N[C@H]2Cc3ccc(F)c(C(=O)O)c3OB2O)c2cc(F)c(O)c(O)c2Cl)C(=O)C1=O)c1cc(F)c(O)cc1F (single isomer, unassigned) [Example 473] | > 128 | < 1 | < 10 | < 1 | < 10 |
| O=C(NCCCS(=O)(=O)N1CCN(C(=O)NC(C(=O)N[C@H]2Cc3ccc(F)c(C(=O)O)c3OB2O)c2cc(F)c(O)c(O)c2Cl)C1=O)Nc1cccc(O)c1 (stereo partly drawn) [Example 277, (3R)-3-(2-(2-chloro-5-fluoro-3,4-dihydroxyphenyl)-2-(3-((3-(3-(3-hydroxyphenyl)ureido)propyl)sulfonyl)-2-oxoimidazolidine-1-carboxamido)acetamido)-7-fluoro-2-hydroxy-3,4-dihydro-2H-benzo[e][1,2]oxaborinine-8-carboxylic acid] | < 1 | 2 to 4 (≈ 2.47 to 4.93 µM) | < 10 | 8 to 16 (≈ 9.87 to 19.7 µM) | < 10 |
| O=C(NCCCS(=O)(=O)N1CCN(C(=O)NC(C(=O)N[C@H]2Cc3ccc(F)c(C(=O)O)c3OB2O)c2cc(F)c(O)c(O)c2Cl)C1=O)Nc1cccnc1 (stereo partly drawn) [Example 278, (3R)-3-(2-(2-chloro-5-fluoro-3,4-dihydroxyphenyl)-2-(2-oxo-3-((3-(3-(pyridin-3-yl)ureido)propyl)sulfonyl)imidazolidine-1-carboxamido)acetamido)-7-fluoro-2-hydroxy-3,4-dihydro-2H-benzo[e][1,2]oxaborinine-8-carboxylic acid] | < 1 | 2 to 4 (≈ 2.51 to 5.03 µM) | < 10 | 2 to 4 (≈ 2.51 to 5.03 µM) | 10 to 50 |
| O=C(NCCN1CCN(C(=O)N[C@@H](C(=O)N[C@H]2Cc3ccc(F)c(C(=O)O)c3OB2O)c2cc(F)c(O)c(O)c2Cl)C1=O)Nc1ccc(O)cc1 [Example 279, (R)-3-((R)-2-(2-chloro-5-fluoro-3,4-dihydroxyphenyl)-2-(3-(2-(3-(4-hydroxyphenyl)ureido)ethyl)-2-oxoimidazolidine-1-carboxamido)acetamido)-7-fluoro-2-hydroxy-3,4-dihydro-2H-benzo[e][1,2]oxaborinine-8-carboxylic acid] | < 1 | < 1 | < 10 | < 1 | < 10 |
| O=C(NCCCN1CCN(C(=O)NC(C(=O)N[C@H]2Cc3ccc(F)c(C(=O)O)c3OB2O)c2cc(F)c(O)c(O)c2Cl)C1=O)c1ccc(O)cc1 (stereo partly drawn) [Example 280, (3R)-3-(2-(2-chloro-5-fluoro-3,4-dihydroxyphenyl)-2-(3-(3-(4-hydroxybenzamido)propyl)-2-oxoimidazolidine-1-carboxamido)acetamido)-7-fluoro-2-hydroxy-3,4-dihydro-2H-benzo[e][1,2]oxaborinine-8-carboxylic acid] | 2 to 4 (≈ 2.73 to 5.47 µM) | 2 to 4 (≈ 2.73 to 5.47 µM) | < 10 | 2 to 4 (≈ 2.73 to 5.47 µM) | 10 to 50 |
| O=C(NCCCN1CCN(C(=O)N[C@@H](C(=O)N[C@H]2Cc3ccc(F)c(C(=O)O)c3OB2O)c2cc(F)c(O)c(O)c2Cl)C1=O)Nc1ccc(O)cc1 [Example 284, (R)-3-((R)-2-(2-chloro-5-fluoro-3,4-dihydroxyphenyl)-2-(3-(3-(3-(4-hydroxyphenyl)ureido)propyl)-2-oxoimidazolidine-1-carboxamido)acetamido)-7-fluoro-2-hydroxy-3,4-dihydro-2H-benzo[e][1,2]oxaborinine-8-carboxylic acid] | 2 to 4 (≈ 2.68 to 5.36 µM) | < 1 | < 10 | < 1 | < 10 |
| O=C(NCCCN1CCN(C(=O)NC(C(=O)N[C@H]2Cc3ccc(F)c(C(=O)O)c3OB2O)c2cc(F)c(O)c(O)c2Cl)C1=O)Nc1ccncc1 (stereo partly drawn) [Example 285, (3R)-3-(2-(2-chloro-5-fluoro-3,4-dihydroxyphenyl)-2-(2-oxo-3-(3-(3-(pyridin-4-yl)ureido)propyl)imidazolidine-1-carboxamido)acetamido)-7-fluoro-2-hydroxy-3,4-dihydro-2H-benzo[e][1,2]oxaborinine-8-carboxylic acid] | < 1 | 8 to 16 (≈ 10.9 to 21.9 µM) | < 10 | 8 to 16 (≈ 10.9 to 21.9 µM) | 10 to 50 |
| O=C(NCCS(=O)(=O)N1CCN(C(=O)N[C@@H](C(=O)N[C@H]2Cc3ccc(F)c(C(=O)O)c3OB2O)c2cc(F)c(O)c(O)c2Cl)C1=O)c1ccc(O)cc1 [Example 287, (R)-3-((R)-2-(2-chloro-5-fluoro-3,4-dihydroxyphenyl)-2-(3-((2-(4-hydroxybenzamido)ethyl)sulfonyl)-2-oxoimidazolidine-1-carboxamido)acetamido)-7-fluoro-2-hydroxy-3,4-dihydro-2H-benzo[e][1,2]oxaborinine-8-carboxylic acid] | < 1 | 2 to 4 (≈ 2.56 to 5.12 µM) | < 10 | < 1 | 10 to 50 |
| O=C(NCCS(=O)(=O)N1CCN(C(=O)NC(C(=O)N[C@H]2Cc3ccc(F)c(C(=O)O)c3OB2O)c2cc(F)c(O)c(O)c2Cl)C1=O)Nc1ccc(O)cc1 (stereo partly drawn) [Example 289, (3R)-3-(2-(2-chloro-5-fluoro-3,4-dihydroxyphenyl)-2-(3-((2-(3-(4-hydroxyphenyl)ureido)ethyl)sulfonyl)-2-oxoimidazolidine-1-carboxamido)acetamido)-7-fluoro-2-hydroxy-3,4-dihydro-2H-benzo[e][1,2]oxaborinine-8-carboxylic acid] | < 1 | 2 to 4 (≈ 2.51 to 5.02 µM) | < 10 | 2 to 4 (≈ 2.51 to 5.02 µM) | < 10 |
| O=C(O)c1c(F)ccc2c1OB(O)[C@@H](NC(=O)C(NC(=O)N1CCN(C3CCN(C(=O)c4cccc(O)c4)CC3)C(=O)C1=O)c1cc(F)c(O)c(O)c1Cl)C2 (stereo partly drawn) [Example 293, (3R)-3-(2-(2-chloro-5-fluoro-3,4-dihydroxyphenyl)-2-(4-(1-(3-hydroxybenzoyl)piperidin-4-yl)-2,3-dioxopiperazine-1-carboxamido)acetamido)-7-fluoro-2-hydroxy-3,4-dihydro-2H-benzo[e][1,2]oxaborinine-8-carboxylic acid] | < 1 | < 1 | < 10 | < 1 | 10 to 50 |
| O=C(NCCCN1CCN(C(=O)NC(C(=O)N[C@H]2Cc3ccc(F)c(C(=O)O)c3OB2O)c2cc(F)c(O)c(O)c2Cl)C(=O)C1=O)c1ccncc1Cl (stereo partly drawn) [Example 295, (3R)-3-(2-(2-chloro-5-fluoro-3,4-dihydroxyphenyl)-2-(4-(3-(3-chloroisonicotinamido)propyl)-2,3-dioxopiperazine-1-carboxamido)acetamido)-7-fluoro-2-hydroxy-3,4-dihydro-2H-benzo[e][1,2]oxaborinine-8-carboxylic acid] | < 1 | 2 to 4 (≈ 2.57 to 5.13 µM) | < 10 | < 1 | 10 to 50 |
| O=C(NCCCN1CCN(C(=O)N[C@@H](C(=O)N[C@H]2Cc3ccc(F)c(C(=O)O)c3OB2O)c2cc(F)c(O)c(O)c2Cl)C(=O)C1=O)c1ccncc1O [Example 296, (R)-3-((R)-2-(2-chloro-5-fluoro-3,4-dihydroxyphenyl)-2-(4-(3-(3-hydroxyisonicotinamido)propyl)-2,3-dioxopiperazine-1-carboxamido)acetamido)-7-fluoro-2-hydroxy-3,4-dihydro-2H-benzo[e][1,2]oxaborinine-8-carboxylic acid] | < 1 | < 1 | < 10 | < 1 | < 10 |
| Cc1cnccc1C(=O)NCCCN1CCN(C(=O)NC(C(=O)N[C@H]2Cc3ccc(F)c(C(=O)O)c3OB2O)c2cc(F)c(O)c(O)c2Cl)C(=O)C1=O (stereo partly drawn) [Example 297, (3R)-3-(2-(2-chloro-5-fluoro-3,4-dihydroxyphenyl)-2-(4-(3-(3-methylisonicotinamido)propyl)-2,3-dioxopiperazine-1-carboxamido)acetamido)-7-fluoro-2-hydroxy-3,4-dihydro-2H-benzo[e][1,2]oxaborinine-8-carboxylic acid] | < 1 | 2 to 4 (≈ 2.64 to 5.27 µM) | < 10 | < 1 | 10 to 50 |
